Values of other authors in US20080260785A1, “PAROXETINE COMPOSITIONS” (priority 2005, published 2008).

Conditions: hydrochloride hemihydrate

Cl.Fc1ccc([C@@H]2CCNC[C@H]2COc2ccc3c(c2)OCO3)cc1 [Paroxetine, (−)-trans-4R-(4′-fluorophenyl)-3S-[(3′,4′-methylenedioxyphenoxy)methyl]piperidine]
solubility in water: 5400 µg/mL
